Measurements as given in patent US9546173B2 (Novartis AG, priority 2012, dated 2017).
pIC50: −log10 of the molar value.

Each molecule was assayed against activated ERK2 (Homo sapiens (Human), UniProt P28482) (assay: Activated ERK2 kinase assay (AlphaScreen, ERKtide peptide phosphorylation)). Settings: […] ERK2, 200 nM ERKtide peptide, 35 μM ATP, 30 min preincubation; read-out: ERK2 IC50.
Type: biochemical
Text: Production of Activated ERK2 Protein:
Activated ERK2 protein was generated in insect cells by co-expression with a constitutively active form of MEK1. The ERK2 protein was expressed and purified as a nHis-PreScission-ERK2 tagged protein and then proteolytically processed to the full-length wild-type protein. […] Double-phosphorylated ERK2 protein was purified from the mixture by mono-Q column separation.
Activated ERK2 Kinase Assay:
A 16-point, half-log dilution series of compounds at 41× final concentration was used for generating IC50 curves. Compound dilution series were prepared in 100% DMSO. ERK2 was preincubated with compounds for 30 minutes at ambient temperature. Reaction was initiated by addition of a substrate cocktail of ERKtide peptide and ATP and was allowed to proceed for 2-3 hours at ambient temperature. Reaction was terminated by addition of 10 μL of a 2× stop buffer consisting of 100 mM Tris-Cl [pH 7.5], 25 mM EDTA, 0.01% Tween 20, 10 μg/mL of AlphaScreen Protein A Acceptor Beads, 10 μg/mL of Streptavidin Donor Beads (PerkinElmer, Waltham, Mass.), and 1.4 μg/mL phospho-EGF Receptor (Thr669) antibody (Cat #3056, Cell Signaling Technology, Danvers, Mass.). Terminated reactions were read, after overnight incubation in the dark, on an EnVision Multilabel Plate Reader (PerkinElmer, Waltham, Mass.), with excitation and emission wavelengths set to 680 nm and 570 nm, respectively. IC50 values were determined using a four-parameter fit.

activated ERK2, sequence (P28482 whole entry): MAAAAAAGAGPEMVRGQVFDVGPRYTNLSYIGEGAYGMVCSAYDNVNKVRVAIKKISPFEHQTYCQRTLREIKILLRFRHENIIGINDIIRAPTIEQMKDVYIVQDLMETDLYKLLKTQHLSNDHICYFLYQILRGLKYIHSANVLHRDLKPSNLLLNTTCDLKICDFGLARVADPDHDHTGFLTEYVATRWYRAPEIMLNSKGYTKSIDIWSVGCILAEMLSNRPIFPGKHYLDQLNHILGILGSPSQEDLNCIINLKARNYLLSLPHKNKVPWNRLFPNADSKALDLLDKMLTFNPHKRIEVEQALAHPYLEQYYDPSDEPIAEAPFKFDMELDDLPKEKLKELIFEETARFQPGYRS

| Compound | pIC50 |
| --- | --- |
| CC1(C)c2cnc(NC3CCOCC3)nc2CN1C(=O)NC1(c2ccccc2)CCOCC1 [compound 44, 5,5-dimethyl-N-(4-phenyltetrahydro-2H-pyran-4-yl)-2-((tetrahydro-2H-pyran-4-yl)amino)-5H-pyrrolo[3,4-d]pyrimidine-6(7H)-carboxamide] | 5.56 |
| Cc1cc(Nc2ncc3c(n2)CN(C(=O)N[C@H](CO)c2ccccc2)C3(C)C)ccn1 [compound 45, (S)-N-(2-hydroxy-1-phenylethyl)-5,5-dimethyl-2-((2-methylpyridin-4-yl)amino)-5H-pyrrolo[3,4-d]pyrimidine-6(7H)-carboxamide] | 6.20 |
| CC1(C)c2cnc(NC3CCOCC3)nc2CN1C(=O)NCc1ccccc1 [compound 46, N-benzyl-5,5-dimethyl-2-((tetrahydro-2H-pyran-4-yl)amino)-5H-pyrrolo[3,4-d]pyrimidine-6(7H)-carboxamide] | 7.51 |
| CC1(C)c2cnc(NC3CCOCC3)nc2CN1C(=O)NCC1CCCCC1 [compound 47, N-(cyclohexylmethyl)-5,5-dimethyl-2-((tetrahydro-2H-pyran-4-yl)amino)-5H-pyrrolo[3,4-d]pyrimidine-6(7H)-carboxamide] | 7.51 |
| CNC(=O)N1Cc2nc(NC3CCOCC3)ncc2C1(C)C [compound 49, N,5,5-trimethyl-2-((tetrahydro-2H-pyran-4-yl)amino)-5H-pyrrolo[3,4-d]pyrimidine-6(7H)-carboxamide] | 6.01 |
| CCNC(=O)N1Cc2nc(NC3CCOCC3)ncc2C1(C)C [compound 50, N-ethyl-5,5-dimethyl-2-((tetrahydro-2H-pyran-4-yl)amino)-5H-pyrrolo[3,4-d]pyrimidine-6(7H)-carboxamide] | 6.08 |
| CC(C)NC(=O)N1Cc2nc(NC3CCOCC3)ncc2C1(C)C [compound 51, N-isopropyl-5,5-dimethyl-2-((tetrahydro-2H-pyran-4-yl)amino)-5H-pyrrolo[3,4-d]pyrimidine-6(7H)-carboxamide] | 6.03 |
| CC1(C)c2cnc(Nc3ccc(F)cc3)nc2CN1C(=O)N[C@H](CO)c1ccccc1 [compound 52, (S)-2-((4-fluorophenyl)amino)-N-(2-hydroxy-1-phenylethyl)-5,5-dimethyl-5H-pyrrolo[3,4-d]pyrimidine-6(7H)-carboxamide] | 6.97 |
| CC1(C)c2cnc(NCC3CC3)nc2CN1C(=O)N[C@H](CO)c1ccccc1 [compound 53, (S)-2-((cyclopropylmethyl)amino)-N-(2-hydroxy-1-phenylethyl)-5,5-dimethyl-5H-pyrrolo[3,4-d]pyrimidine-6(7H)-carboxamide] | 6.30 |
| CC1(C)c2cnc(NC3CC(F)(F)C3)nc2CN1C(=O)N[C@H](CO)c1ccccc1 [compound 54, (S)-2-((3,3-difluorocyclobutyl)amino)-N-(2-hydroxy-1-phenylethyl)-5,5-dimethyl-5H-pyrrolo[3,4-d]pyrimidine-6(7H)-carboxamide] | 6.14 |
| CC1(C)c2cnc(N[C@H]3C[C@@H](O)C3)nc2CN1C(=O)N[C@H](CO)c1ccccc1 [compound 55, N-((S)-2-hydroxy-1-phenylethyl)-2-(((1s,3R)-3-hydroxycyclobutyl)amino)-5,5-dimethyl-5H-pyrrolo[3,4-d]pyrimidine-6(7H)-carboxamide] | 6.17 |
| CC(=O)NCCNc1ncc2c(n1)CN(C(=O)N[C@H](CO)c1ccccc1)C2(C)C [compound 56, (S)-2-((2-acetamidoethyl)amino)-N-(2-hydroxy-1-phenylethyl)-5,5-dimethyl-5H-pyrrolo[3,4-d]pyrimidine-6(7H)-carboxamide] | 5.46 |
| COCCNc1ncc2c(n1)CN(C(=O)N[C@H](CO)c1ccccc1)C2(C)C [compound 57, (S)-N-(2-hydroxy-1-phenylethyl)-2-((2-methoxyethyl)amino)-5,5-dimethyl-5H-pyrrolo[3,4-d]pyrimidine-6(7H)-carboxamide] | 5.46 |
| CC1(C)c2cnc(NCCC#N)nc2CN1C(=O)N[C@H](CO)c1ccccc1 [compound 58, (S)-2-((2-cyanoethyl)amino)-N-(2-hydroxy-1-phenylethyl)-5,5-dimethyl-5H-pyrrolo[3,4-d]pyrimidine-6(7H)-carboxamide] | 5.82 |
